In data set [1] the test system is inducible nitric oxide synthase (iNOS). The data set is described as follows: iNOS suppression / NO assay in LPS-stimulated macrophages or RAW264.7 cells (Griess reaction). Format: cell-based, mouse. The following applies: Mus musculus, RAW264.7, 24 h, percent of the LPS-stimulated control, lower is better, Table 6; for activity at 0.3 µM: at 300 nM, read-out: iNOS suppression; for activity at 0.1 µM: at 100 nM. Here is the method: Macrophages or RAW264.7 like-cells were treated with various concentrations of rexinoids and stimulated with lipopolysaccaride (LPS) to activate inducible nitric oxide synthase (iNOS) to produce nitric oxide. This in vitro iNOS assay was rapid, reproducible, quantitative and predictive. Nitric oxide is implicated in the apoptosis of cancer cells via regulation of RXRs. There is a tight correlation between the % reduction of iNOS and efficacy in preclinical lung cancer models. Lower numbers indicate higher efficacy.
RAW264.7 cells were incubated with 300 nM rexinoids and stimulated with 1-2 ng/ml lipopolysaccaride (LPS) for 24 hours to activate inducible nitric oxide synthase (iNOS) to produce nitric oxide. Nitric oxide released into the media was measured by the Griess reaction.
Also, for Table 6, the iNOS suppression is the percent of the LPS-stimulated control where the compounds were measured at 100 nM or 300 nM.
Macrophages or RAW264.7 cells were treated with various concentrations of rexinoids listed in Table 7 and stimulated with lipopolysaccaride (LPS) to activate inducible nitric oxide synthase (iNOS) to produce nitric oxide. Nitric oxide (NO) is implicated in the apoptosis of cancer cells via regulation of RXRs. There is a tight correlation between the % reduction of iNOS and efficacy in preclinical lung cancer models. The in vitro iNOS assay is rapid, reproducible, quantitative and predictive, as NO production is measured in culture medium using the Griess reaction. Values are either presented as % inhibition or IC50 values.
On the technique in general: Griess reagent forms a coloured azo dye with nitrite.

In data set [2] the test system is SREBP. The data set is described as follows: SREBP induction in human liver (HepG2) cells, RT-PCR. Format: cell-based. The following applies: fold induction compared to DMSO; several values per cell; Table 6. Here is the method: The SREBP transcription factor is involved in triglyceride synthesis, and its activation correlates with increased triglycerides in vivo. […] Lower numbers indicate better safety. […] Lower numbers indicate better safety. Also, for Table 6, SREBP activation was measured as fold induction compared to DMSO, where a lower value indicates the compound is an improvement over a control.

Data set [3] can be described thus: LogD at pH 7.4. Format: physicochemical. Particulars: pH 7.4 buffer. As for the experimental part:
Note that for Table 6, Log D is the distribution constant, which is descriptor of the lipophilicity of a molecule. This was determined using an aqueous phase that was adjusted to pH 7.4 using a buffer.

The subject of data set [4] is Lung Cancer Model. The data set is described as follows: Lung cancer model rank order. Format: in vivo.
Data set [5] in a line: Triglycerides in rodent models. In kind it is in vivo.
For data set [6], the target named is T1, human RXRa (Homo sapiens, UniProt P19793).
T1 sequence (P19793 1-462): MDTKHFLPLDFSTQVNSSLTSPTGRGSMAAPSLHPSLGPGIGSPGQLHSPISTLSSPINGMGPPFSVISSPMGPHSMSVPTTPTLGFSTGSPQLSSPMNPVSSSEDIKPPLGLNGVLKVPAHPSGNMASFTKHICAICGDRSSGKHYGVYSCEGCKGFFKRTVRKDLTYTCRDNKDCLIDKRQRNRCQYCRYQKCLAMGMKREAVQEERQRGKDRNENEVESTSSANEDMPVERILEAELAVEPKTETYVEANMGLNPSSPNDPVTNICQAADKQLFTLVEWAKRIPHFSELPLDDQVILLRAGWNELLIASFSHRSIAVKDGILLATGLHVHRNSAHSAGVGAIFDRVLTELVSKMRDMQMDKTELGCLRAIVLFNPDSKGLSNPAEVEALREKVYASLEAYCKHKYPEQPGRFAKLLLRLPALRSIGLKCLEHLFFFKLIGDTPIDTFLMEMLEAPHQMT
The data set is described as follows: RXR activation luciferase reporter assay. In kind it is cell-based. Particulars: Table 6; read-out: RXRα activation (EC50). The source says: Rexinoids are agonists for the retinoid X receptors (RXRs). In this assay, the human RXRa promoter is functionally linked to a luciferase reporter gene. Changes in luciferase expression served as a sensitive surrogate measure of RXR activity. Higher numbers indicate higher potency.
A general note: In a reporter assay the amount or activity of a reporter protein is the signal.

Where “and” joins values, the source holds several entries; their conditions need not be identical. Equal values may be shown once.

Here are results for 20 compounds from patent publication US20220089540A1 (Board of Trustees of Michigan State University, priority 2019, published 2022).

One may read the logD as the decadic logarithm of the distribution of all forms, ionised or not, between an organic phase and buffer at a given pH. The EC50 is the concentration needed to bring the measured effect to its halfway point.

With `CCN(c1cc(C(C)(C)C)cc(C(C)(C)C)c1)c1ncc(C(=O)O)cn1` [drawing 106], the activity at 0.3 µM in data set [1] was determined as 55%. Besides, the SREBP activation in data set [2] is 3.5 fold induction and 1.8 fold induction. Moreover, the logD in data set [3] came out at 2.3.
In data set [1], `C/C(=C/C=C/C(C)=C/C(=O)O)c1cc(C(C)(C)C)cc(C(C)(C)C)c1OCC(F)F` [drawing 96] gave an activity at 0.1 µM of 30 to 35%. Besides, the “Lung Cancer Model Rank Order” value in data set [4] was 4. In data set [5], the “Triglyccerides (Rodent Models)” value was “No Elevation”.
Take `CCCN(c1cc(C(C)(C)C)cc(C(C)(C)C)c1)c1ccc(C(=O)O)cn1` [drawing 117]: in data set [1], the activity at 0.1 µM amounted to 22% and the activity at 0.3 µM worked out at 13%. In addition, the SREBP activation in data set [2] was 1.95 fold induction and 2.9 fold induction. The logD in data set [3] came to 3.4.
Consider `C=C(c1ccc(C(=O)O)cc1)c1cc(C(C)C)c(OC(C)C)cc1C` [drawing 114], for which the activity at 0.3 µM in data set [1] came to 40%. This compound returned an SREBP activation in data set [2] of 4.7 fold induction. Besides, the log distribution coefficient (logD) in data set [3] was found to be 3.1.
Turning to `CC(C)(C)c1cc(N(CC2CC2)c2ccc(C(=O)O)cn2)cc(C(C)(C)C)c1` [drawing 118], in data set [1], the activity at 0.1 µM was 19% and the activity at 0.3 µM was found to be 13%. Moreover, in data set [3], the logD worked out at 3.4.
For `CCN(c1ccc(C(=O)O)cc1)c1cc(C(C)(C)C)c(OC)c(C(C)(C)C)c1` [drawing 121], the activity at 0.3 µM in data set [1] is 74%. The compound further yielded an SREBP activation in data set [2] of 1.45 fold induction. The same compound yielded a pH-dependent lipophilicity (logD) in data set [3] of 3.8.
In the case of `C=C(c1ccc(C(=O)O)cc1)c1cc(C(C)(C)C)cc(C(C)(C)C)c1` [drawing 116], the activity at 0.3 µM in data set [1] is 61%. The compound also yielded a logD in data set [3] of 3.8.
For `Cc1cc2c(cc1C1(c3ncc(C(=O)O)cn3)CC1)C(C)(C)CCC2(C)C` [drawing 98, reference compound], the activity at 0.1 µM in data set [1] was approximately 25%. Moreover, the EC50 in data set [6] was 0.025 to 0.05 µM. Moreover, in data set [2], the SREBP activation is approximately 1.25 fold induction. Also, the “Lung Cancer Model Rank Order” value in data set [4] is listed as 3. In addition, the “Triglyccerides (Rodent Models)” value in data set [5] is “Modest Elevation”.
Regarding `C=C(c1ccc(C(=O)O)cc1)c1ccc(OCC(C)C)c(C(C)C)c1` [drawing 110], in data set [1], the activity at 0.3 µM amounted to 75%. The SREBP activation in data set [2] came out at 2 fold induction. In data set [3], the logD was determined as 3.
Turning to `CCN(c1ccc(C(=O)O)cc1)c1cc(C(C)(C)C)cc(C(C)(C)C)c1` [drawing 104], in data set [1], the activity at 0.3 µM amounted to 43%. Further, in data set [2], the SREBP activation was 1.8 fold induction and 2.5 fold induction. Further, the logD in data set [3] came to 4.
As for `C=C(c1ccc(C(=O)O)cc1)c1cc(C(C)C)c(OCC)cc1C` [drawing 115], the activity at 0.3 µM in data set [1] worked out at 45%. The same compound registered an SREBP activation in data set [2] of 1.4 fold induction. This compound returned a logD in data set [3] of 2.6.
In the same order, the values of `C=C(c1ccc(C(=O)O)cc1)c1cc(C(C)C)c(OCC(C)C)cc1C` [drawing 111] are 40%, 1.2 fold induction and 3.5.
`Cc1cc2c(cc1C1(c3ccc(C(=O)O)cn3)CC1)C(C)(C)CCC2(C)C` [drawing 95, reference compound]: the activity at 0.1 µM in data set [1] fell in the range of 15 to 20%. In addition, the SREBP activation in data set [2] is 3.9 fold induction and 3.1 fold induction and 3.2 fold induction. The “Lung Cancer Model Rank Order” value in data set [4] was determined as 1. For the same compound, the “Triglyccerides (Rodent Models)” value in data set [5] is reported as “Elevated”.
For `CCN(c1ccc(OCC(C)C)c(C(C)C)c1)c1ccc(C(=O)O)cn1` [reference compound], the EC50 in data set [6] was 0.05 to 0.2 µM. Also, the “Triglyccerides (Rodent Models)” value in data set [5] is “Modest elevation in female rats”.
`CCN(c1ccc2c(c1)C(C)(C)CCC2(C)C)c1ccc(C(=O)O)cn1` [reference compound]: the EC50 in data set [6] was 0.001 to 0.025 µM. The “Triglyccerides (Rodent Models)” value in data set [5] is “Elevated (mice)”.
With `CCN(c1cc(C(C)(C)C)cc(C(C)(C)C)c1)c1ccc(C(=O)O)cn1` [drawing 105], the activity at 0.3 µM in data set [1] worked out at 30%. Moreover, in data set [2], the SREBP activation was 1.6 fold induction and 2.85 fold induction and 3.1 fold induction. Besides, the logD in data set [3] was found to be 2.9.
`Cc1cc2c(cc1-n1c(C(F)(F)F)nc3cc(C(=O)O)ccc31)C(C)(C)CCC2(C)C` [reference compound]: the EC50 in data set [6] is 0.001 to 0.025 µM. Further, the “Triglyccerides (Rodent Models)” value in data set [5] is recorded as “No elevation (mice)”.
As to `CCN(c1cc(C(F)(F)F)cc(C(F)(F)F)c1)c1ccc(C(=O)O)cn1` [drawing 119], in data set [1], the activity at 0.1 µM was determined as 24% and the activity at 0.3 µM came to 15%. Further, the SREBP activation in data set [2] was 0.95 fold induction and 1.2 fold induction. For the same compound, the pH-dependent lipophilicity (logD) in data set [3] was 1.5.
`CC(/C=C/[C@@H]1C[C@]1(C)c1cc2c(cc1C)C(C)(C)CCC2(C)C)=C\C(=O)O` [reference compound] registered an activity at 0.1 µM in data set [1] of 15 to 20%. For the same compound, the EC50 in data set [6] was in the range of 0.001 to 0.025 µM. The same compound showed an SREBP activation in data set [2] of approximately 3.6 fold induction. Further, in data set [4], the “Lung Cancer Model Rank Order” value was determined as 2. Besides, the “Triglyccerides (Rodent Models)” value in data set [5] is “Elevated”.
Consider `CCN(c1ccc(C(=O)O)cc1)c1cc(C(C)C)c(OCC(C)C)cc1C` [drawing 120], for which, in data set [1], the activity at 0.3 µM was 86%. In data set [2], this compound gave an SREBP activation of 1.3 fold induction. In data set [3], this compound returned a logD of 3.8.
